Active and inactive are the calls of the source. The calls are words filed in the database; no cut-off is given here.
What was measured:
Homo sapiens [1] = species on record: Homo sapiens; assay: Binding affinity to WT 27-mer Bcl-2 G-quadruplex DNA (unknown origin) at 40 uM by electrospray ionization mass spectra analysis
Homo sapiens [2] = species on record: Homo sapiens; assay: Binding affinity to Bcl-2 G-quadruplex DNA (unknown origin) at compound/DNA ratio 2:1 by CD spectral analysis
Homo sapiens [3] = species on record: Homo sapiens; assay: Binding affinity to WT 27-mer Bcl-2 G-quadruplex DNA (unknown origin) at 5 uM by isothermal titration calorimetric assay
Homo sapiens [4] = species on record: Homo sapiens; assay: Binding affinity to WT 27-mer Bcl-2 G-quadruplex DNA (unknown origin) at compound/DNA ratio 1 to 4 by CD spectral analysis

Activity (Homo sapiens [1])	Activity (Homo sapiens [2])	Activity (Homo sapiens [3])	Activity (Homo sapiens [4])	Compound
Active	Active	Active	–	C[n+]1ccc(-c2c3nc(cc4ccc([nH]4)c(-c4cc[n+](C)cc4)c4nc(cc5ccc2[nH]5)C=C4)C=C3)cc1
Active	Active	Active	Active	C[n+]1ccc(-c2c3nc(c(-c4cc[n+](C)cc4)c4ccc([nH]4)c(-c4cc[n+](C)cc4)c4nc(cc5ccc2[nH]5)C=C4)C=C3)cc1
inactive	–	–	–	C[n+]1ccc(-c2c3nc(cc4ccc(cc5nc(c(-c6cc[n+](C)cc6)c6ccc2[nH]6)C=C5)[nH]4)C=C3)cc1

The remaining lines, values behind:

Compound	Activity (Homo sapiens [1])	Activity (Homo sapiens [2])	Activity (Homo sapiens [3])	Activity (Homo sapiens [4])
C[n+]1ccc(-c2c3nc(cc4ccc(cc5nc(cc6ccc2[nH]6)C=C5)[nH]4)C=C3)cc1	inactive	–	–	–
C[n+]1ccc(-c2c3nc(c(-c4cc[n+](C)cc4)c4ccc([nH]4)c(-c4cc[n+](C)cc4)c4ccc([nH]4)c(-c4cc[n+](C)cc4)c4nc2C=C4)C=C3)cc1	–	Active	–	–

Source: ChEMBL document CHEMBL3091447, “The effect of pyridyl substituents on the thermodynamics of porphyrin binding to G-quadruplex DNA” (Bioorg Med Chem, 2013)
